Experimental data from patent US7850981B2, “Immuno-adjuvant PDT treatment of metastatic tumors” (QLT, Inc., priority 1999, dated 2010).
Marks after values point to notes of the source that are not given here.

Columns and labels:
[1] = test system: Lewis Lung Carcinoma (LLC); test: In vitro lymphocyte proliferation assay (MTS) with lymph node cells of LLC-bearing mice treated with PDT or PDV; type: cell-based, C57B1/6 mice; conditions: mean±standard deviation; lymph nodes 7-10 days after therapy; cultured with LLC antigen; PDV n=7 (ConA responders)
Source text: In order to assess the potential usefulness of various adjuvants and treatment parameters in PDV, an in vitro lymphocyte proliferation assay was designed and employed in a murine tumor model. The assay measures tumour-specific lymphocyte (tumor immunity) responses from animals treated with PDT and PDT combined with adjuvant (PDV). This permits the rapid evaluation of various PDT/adjuvant administration protocols.
Female C57B1/6 mice are implanted subcutaneously on the shaved right flank with the Lewis Lung Carcinoma (LLC) cell line. When tumours develop to approximately 5 mm diameter animals are treated with PDT or PDV. PDT is performed by delivering 1.0 mg/kg verteporfin i.v. 30 min prior to illumination of 125 J/cm^2 delivered at 70 mW/cm^2 (treatment time=29 min, 4 sec). […] Animals are monitored for general health and re-growth of the tumour following therapy.
Seven to 10 days following therapy, animals are sacrificed and inguinal, axillary, cervical, and periaortic lymph nodes are aseptically removed. […] Following 3 to 5 days of culture, the degree of proliferation is assessed using 3-(4,5-dimethylthiazol-2-yl)-5-(3-carboxymethoxyphenyl)-2-(4-sulfophenyl)-2H-tetrazolium, inner salt (Owen's reagent, MTS, from PROMEGA™), a variation of the MTT assay which produces a soluble formazan product which absorbs light at 490 nm. […]

B16-F1 melanoma = test: B16-F1 melanoma: PDT (verteporfin 1.0 mg/kg i.v., 100 J/cm^2) with or without intratumoral TITERMAX, then experimental pulmonary metastases; type: in vivo, C57BL/6 mice
Description: Male, C57BL/6 mice were obtained from Charles River Canada (Montreal, QC) at 6 to 8 weeks of age. The B 16-F0 and B 16-F1 melanoma cell lines were obtained from the […] (ATC™) (Manassas, Va.) and grown as cell cultures in Dulbecco's Modified Eagle Medium (DMEM) (Gibco) supplemented with 10% fetal bovine serum (Sigma). The cells adhered to tissue culture plates, were removed for passage with 0.25% trypsin with 1.0 mM ethylenediaminetetraacetic acid (EDTA) (Gibco), and were cryo-preserved in liquid nitrogen in DMEM plus 40% FBS and 10% DMSO. Mice were injected with 5×10^5 tumor cells in a total volume of 50 μL subcutaneously into the shaved, right flank. The tumor size was monitored daily by measuring the diameter with vernier calipers and were treated when the tumors reached approximately 5 mm in diameter. […] Subsequently the B16-F1 cell line was used for all experiments.
PDT treatment of mice bearing the B16-F1 tumor was performed as previously described for the M1 rhabdomyosarcoma mouse tumor (Richter et al., 1987; Richter et al., 1988; Richter et al., 1991). Each mouse was weighed, warmed under infrared light for less than 5 min to dilate the blood vessels, restrained, and injected intravenously (tail vein) with verteporfin at a concentration of 1.0 mg/kg body weight using a 28G needle. […] Following treatment, animals were monitored daily for tumor response. […]

M1 (rhabdomyosarcoma) = test: Reimplantation of M1 tumor on Day 20 into tumor-free mice treated with PDT (verteporfin 1.0 mg/kg i.v. + light) with or without DETOX B-SE; type: in vivo; conditions: for Survival (tumour less than 1 cm long, not euthanized) / Tumor-take Rate: reimplanted Day 20
Source text: The thirty mice in treatment group 7 were implanted at the same time as those reimplanted on Groups 1-6 to provide a control for the rate of tumor-take. Ten mice were implanted on each of three separate batches of 10 mice to match the days of reimplantation of 1-6.
High dose PDT gave approximately 60% fewer tumors (n=9), and this percentage was not changed by the addition of high dose immunoadjuvant (n=5). The lower dose of immunoadjuvant combined with high dose PDT gave more protection against rechallenge (20% take rate, n=6).

[2] = Optimal PDT (75 J/cm^2), n = 9, day 23 post-PDT
[3] = Optimal PDT (75 J/cm^2), n = 9, day 26 post-PDT
[4] = Optimal PDT (75 J/cm^2), n = 9, day 29 post-PDT
[5] = Optimal PDT (75 J/cm^2), n = 9, day 32 post-PDT
[6] = Optimal PDT (75 J/cm^2), n = 9, day 35 post-PDT
[7] = Optimal PDT (75 J/cm^2), n = 9, day 38 post-PDT
[8] = Optimal PDT (75 J/cm^2), n = 9, day 41 post-PDT
[9] = Optimal PDT (75 J/cm^2), n = 9, day 44 post-PDT
[10] = Optimal PDT (75 J/cm^2), n = 9, day 47 post-PDT
[11] = Optimal PDT (75 J/cm^2), n = 9, day 50 post-PDT
[12] = Sub-optimal PDT (25 J/cm^2), n = 7, day 23 post-PDT
[13] = Sub-optimal PDT (25 J/cm^2), n = 7, day 26 post-PDT
[14] = Sub-optimal PDT (25 J/cm^2), n = 7, day 29 post-PDT
[15] = Sub-optimal PDT (25 J/cm^2), n = 7, day 32 post-PDT
[16] = Sub-optimal PDT (25 J/cm^2), n = 7, day 35 post-PDT
[17] = Sub-optimal PDT (25 J/cm^2), n = 7, day 38 post-PDT
[18] = Sub-optimal PDT (25 J/cm^2), n = 7, day 41 post-PDT
[19] = Sub-optimal PDT (25 J/cm^2), n = 7, day 44 post-PDT
[20] = Sub-optimal PDT (25 J/cm^2), n = 7, day 47 post-PDT
[21] = Sub-optimal PDT (25 J/cm^2), n = 7, day 50 post-PDT

benzoporphyrin derivative monoacid ring A [verteporfin]
lymphocyte proliferation, percent of lymphocytes without antigen [1]: 108±11%
animals that required repeated treatment to complete the tumor cure (B16-F1 melanoma; of five animals per group, subcutaneous B16-F1 tumor): 3
lung colonies (B16-F1 melanoma; one of the 5 animals treated with PDT alone, 14 days after i.v. tumor cells): 6
fewer tumors upon reimplantation than in untreated naïve mice (M1 (rhabdomyosarcoma); High dose PDT (75 J/cm^2), n=9): approximately 60%
protection against rechallenge relative to controls (M1 (rhabdomyosarcoma); Low dose PDT alone (25 J/cm^2), superior to low dose PDT combined with low-dose adjuvant): substantial protection
Survival (tumour less than 1 cm long, not euthanized) (M1 (rhabdomyosarcoma); [2]): 100%
Tumor-take Rate (M1 (rhabdomyosarcoma); [2]): 0%
Survival (tumour less than 1 cm long, not euthanized) (M1 (rhabdomyosarcoma); [3]): 100%
Tumor-take Rate (M1 (rhabdomyosarcoma); [3]): 44^d %
Survival (tumour less than 1 cm long, not euthanized) (M1 (rhabdomyosarcoma); [4]): 100%
Tumor-take Rate (M1 (rhabdomyosarcoma); [4]): 44^c %
Survival (tumour less than 1 cm long, not euthanized) (M1 (rhabdomyosarcoma); [5]): 100%
Tumor-take Rate (M1 (rhabdomyosarcoma); [5]): 44^c %
Survival (tumour less than 1 cm long, not euthanized) (M1 (rhabdomyosarcoma); [6]): 89^c %
Tumor-take Rate (M1 (rhabdomyosarcoma); [6]): 44^c %
Survival (tumour less than 1 cm long, not euthanized) (M1 (rhabdomyosarcoma); [7]): 89%
Tumor-take Rate (M1 (rhabdomyosarcoma); [7]): 44^c %
Survival (tumour less than 1 cm long, not euthanized) (M1 (rhabdomyosarcoma); [8]): 89%
Tumor-take Rate (M1 (rhabdomyosarcoma); [8]): 44^c %
Survival (tumour less than 1 cm long, not euthanized) (M1 (rhabdomyosarcoma); [9]): 78%
Tumor-take Rate (M1 (rhabdomyosarcoma); [9]): 44^c %
Survival (tumour less than 1 cm long, not euthanized) (M1 (rhabdomyosarcoma); [10]): 56%
Tumor-take Rate (M1 (rhabdomyosarcoma); [10]): 44^c %
Survival (tumour less than 1 cm long, not euthanized) (M1 (rhabdomyosarcoma); [11]): 56%
Tumor-take Rate (M1 (rhabdomyosarcoma); [11]): 44^c %
Survival (tumour less than 1 cm long, not euthanized) (M1 (rhabdomyosarcoma); [12]): 100%
Tumor-take Rate (M1 (rhabdomyosarcoma); [12]): 0%
Survival (tumour less than 1 cm long, not euthanized) (M1 (rhabdomyosarcoma); [13]): 100%
Tumor-take Rate (M1 (rhabdomyosarcoma); [13]): 43%
Survival (tumour less than 1 cm long, not euthanized) (M1 (rhabdomyosarcoma); [14]): 100%
Tumor-take Rate (M1 (rhabdomyosarcoma); [14]): 43%
Survival (tumour less than 1 cm long, not euthanized) (M1 (rhabdomyosarcoma); [15]): 100%
Tumor-take Rate (M1 (rhabdomyosarcoma); [15]): 43%
Survival (tumour less than 1 cm long, not euthanized) (M1 (rhabdomyosarcoma); [16]): 100%
Tumor-take Rate (M1 (rhabdomyosarcoma); [16]): 43%
Survival (tumour less than 1 cm long, not euthanized) (M1 (rhabdomyosarcoma); [17]): 100%
Tumor-take Rate (M1 (rhabdomyosarcoma); [17]): 43%
Survival (tumour less than 1 cm long, not euthanized) (M1 (rhabdomyosarcoma); [18]): 100%
Tumor-take Rate (M1 (rhabdomyosarcoma); [18]): 29%
Survival (tumour less than 1 cm long, not euthanized) (M1 (rhabdomyosarcoma); [19]): 86%
Tumor-take Rate (M1 (rhabdomyosarcoma); [19]): 29%
Survival (tumour less than 1 cm long, not euthanized) (M1 (rhabdomyosarcoma); [20]): 86%
Tumor-take Rate (M1 (rhabdomyosarcoma); [20]): 29%
Survival (tumour less than 1 cm long, not euthanized) (M1 (rhabdomyosarcoma); [21]): 86%
Tumor-take Rate (M1 (rhabdomyosarcoma); [21]): 29%
